Source: US5696117A, “Benzoxazine antimicrobial agents” (Ortho Pharmaceutical Corporation, priority 1995, dated 1997)
In brackets after ≈: the same amount, converted by molar mass.

Columns and labels:
gram positive bacteria = experiment: MIC antimicrobial assay, microdilution broth method (NCCLS), gram positive bacteria; type: cell-based; details: range over the gram positive test organisms; 35° C., 16-20 hours
Procedure: (§1) 2. MIC Anitimicrobial Assay
(§2) The in vitro antimicrobial activity of the compounds was determined by the microdilution broth method following the test method from the National Committee for Laboratory Standards (NCCLS). This method is described in the NCCLS Document M7-A2, Vol. 10, No. 8 "Methods for Dilution Antimicrobial Susceptibility Test for Bacteria that Grow Aerobically--Second Edition."
(§3) In this method two-fold serial dilutions of drug in cation supplemented Mueller-Hinton broth are added to wells in microdilution trays. The test organisms are prepared by adjusting the turbidity of actively growing broth cultures so that the final concentration of test organism after it is added to the wells is approximately 5×10^4 CFUs/well.
(§4) Following inoculation of the microdilution trays, the trays are incubated at 35° C. for 16-20 hours and then read. […] The amount of growth in the wells containing the test compound is compared with the amount of growth in the growth-control wells (no test compound) used in each tray. As set forth in Tables 1 and 2, compounds of the present invention were tested against a variety of Gram+ and Gram- pathogenic bacteria resulting in a range of activities, from 1→128 μg/mL depending on the organism tested. The following test organisms were utilized in the assay:
Enterococcus faecalis ATCC 29212
Enterococcus faecalis oc 3041
Enterococcus faecium oc 2993
Methicillin resistant Staphylococcus aureus oc 2089
Methicillin resistant Staphylococcus aureus oc667
Staphylococcus aureus ATCC 29213
Staphylococcus aureus ATCC 6538
Staphylococcus epidermidis oc 2603

Kinase A and SpoOF = biological target: T1, Kinase A and SpoOF (Bacillus subtilis, UniProt P16497); experiment: Autophosphorylation of Kinase A and Transphosphorylation of SpoOF Assay (HPK in vitro assay); type: biochemical; details: inhibition of KinA autophosphorylation / SpoOF transphosphorylation, inhibitor concentrations from 1 to 500 μM
T1 construct: made in house; host or cells: recombinant E. coli (overexpression)
T1 sequence (P16497 1-606): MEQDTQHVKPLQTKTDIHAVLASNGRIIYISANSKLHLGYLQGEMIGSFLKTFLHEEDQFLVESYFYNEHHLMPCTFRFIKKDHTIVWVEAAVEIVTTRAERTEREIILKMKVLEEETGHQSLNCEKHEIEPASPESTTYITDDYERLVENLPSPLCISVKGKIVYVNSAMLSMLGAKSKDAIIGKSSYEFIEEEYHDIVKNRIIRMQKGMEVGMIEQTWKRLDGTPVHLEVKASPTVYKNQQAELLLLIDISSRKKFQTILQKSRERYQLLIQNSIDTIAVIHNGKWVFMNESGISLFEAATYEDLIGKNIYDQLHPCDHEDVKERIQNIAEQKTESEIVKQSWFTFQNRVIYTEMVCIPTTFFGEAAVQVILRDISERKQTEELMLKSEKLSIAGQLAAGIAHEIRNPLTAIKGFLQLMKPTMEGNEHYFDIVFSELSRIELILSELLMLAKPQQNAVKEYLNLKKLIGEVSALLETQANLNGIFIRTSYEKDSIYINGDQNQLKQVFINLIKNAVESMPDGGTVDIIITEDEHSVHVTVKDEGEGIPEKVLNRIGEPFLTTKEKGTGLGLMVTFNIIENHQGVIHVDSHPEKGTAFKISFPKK
Method in brief: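 Recombinant KinA and SpoOF (from E. coli) preincubated 15 min on ice with compound (1.0 mM solution in 5% DMSO, stock), then 10 min at room temperature with [32P]ATP. Labelled proteins resolved by SDS gel, quantified by phosphoimager; IC50 from 1–500 μM compound range.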

gram negative bacteria = experiment: MIC antimicrobial assay, microdilution broth method (NCCLS), gram negative bacteria; type: cell-based; details: range over the gram negative test organisms; 35° C., 16-20 hours
Procedure: as §1, §2, §3, §4
Escherichia coli oc 2530 ss
Klebsiella pneumoniae oc 1943
Pseudomonas aeroginosa oc 161
Pseudomonas aeroginosa ATCC 27853

| MIC (gram positive bacteria) | IC50 (Kinase A and SpoOF) | MIC (gram negative bacteria) | Compound |
| --- | --- | --- | --- |
| 4 to 8 µg/mL (≈ 8.49 to 17 µM) | 32 µM | – | NCCc1cccc(OCCC2Oc3ccccc3N(Cc3cc(Cl)cc(Cl)c3)C2=O)c1 (centres unmarked) [Compound 64, 2-{2-[3-(2-Aminoethyl)phenoxy]ethyl}-4-(3,5-dichlorobenzyl)-3,4-dihydro-3-oxo-2H-1,4-benzoxazine] |
| 8 to 16 µg/mL (≈ 18.9 to 37.8 µM) | 81 µM | – | NCc1cccc(OCCC2Oc3ccccc3N(Cc3cccc(Cl)c3)C2=O)c1 (centres unmarked) [Compound 74, 2-{2-[3-(Aminomethyl)phenoxy]ethyl}-4-(3-chlorobenzyl)-3,4-dihydro-3-oxo-2H-1,4-benzoxazine] |
| 8 to 16 µg/mL (≈ 18.3 to 36.6 µM) | 74 µM | – | NCCc1cccc(OCCC2Oc3ccccc3N(Cc3ccccc3Cl)C2=O)c1 (centres unmarked) [Compound 16, 2-[2-[3-(2-Aminoethyl)phenoxy]ethyl]-4-(2-chlorobenzyl)-3,4-dihydro-3-oxo-2H-1,4-benzoxazine] |
| 8 to 16 µg/mL (≈ 18.3 to 36.6 µM) | 78 µM | – | NCCc1ccc(OCCC2Oc3ccccc3N(Cc3cccc(Cl)c3)C2=O)cc1 (centres unmarked) [Compound 79, 2-{2-[4-(2-Aminoethyl)phenoxy]ethyl}-4-(3-chlorobenzyl)-3,4-dihydro-3-oxo-2H-1,4-benzoxazine] |
| 2 to 4 µg/mL (≈ 4.18 to 8.35 µM) | 30 µM | – | N=C(N)NCCc1ccc(OCCC2Oc3ccccc3N(Cc3cccc(Cl)c3)C2=O)cc1 (centres unmarked) [Compound 72, 4-(3-Chlorobenzyl)-3,4-dihydro-2-{2-[4-(2-guanidinoethyl)phenoxy]ethyl}-3-oxo-2H-1,4-benzoxazine] |
| 1 to 4 µg/mL (≈ 2.15 to 8.6 µM) | 32 µM | – | N=C(N)NCc1ccc(OCCC2Oc3ccccc3N(Cc3cccc(Cl)c3)C2=O)cc1 (centres unmarked) [Compound 78, 4-(3-Chlorobenzyl)-3,4-dihydro-2-{2-[4-(guanidinylmethyl)phenoxy]ethyl}-3-oxo-2H-1,4-benzoxazine] |
| 8 µg/mL (≈ 17.7 µM) | 32 µM | – | NCCCc1ccc(OCCC2Oc3ccccc3N(Cc3cccc(Cl)c3)C2=O)cc1 (centres unmarked) [Compound 76, 2-{2-[4-(3-Aminopropyl)phenoxy]ethyl}-4-(3-chlorobenzyl)-3,4-dihydro-3-oxo-2H-1,4-benzoxazine] |
| 8 to 32 µg/mL (≈ 18.9 to 75.7 µM) | 55 µM | – | NCc1ccc(OCCC2Oc3ccccc3N(Cc3cccc(Cl)c3)C2=O)cc1 (centres unmarked) [Compound 2, 2-[2-[4-(Aminomethyl)phenoxy]ethyl]-4-(3-chlorobenzyl)-3,4-dihydro-3-oxo-2H-1,4-benzoxazine] |
| 8 to 16 µg/mL (≈ 18.3 to 36.6 µM) | 89 µM | 8 to 128 µg/mL (≈ 18.3 to 293 µM) | NCCc1cccc(OCCC2Oc3ccccc3N(Cc3ccc(Cl)cc3)C2=O)c1 (centres unmarked) [Compound 8, 2-[2-[3-(2-Aminoethyl)phenoxy]ethyl]-4-(4-chlorobenzyl)-3,4-dihydro-3-oxo-2H-1,4-benzoxazine] |
| 8 to 16 µg/mL (≈ 18.3 to 36.6 µM) | 65 µM | – | NCCc1cccc(OCCC2Oc3ccccc3N(Cc3cccc(Cl)c3)C2=O)c1 (centres unmarked) [Compound 70, 2-{2-[3-(2-Aminoethyl)phenoxy]ethyl}-4-(3-chlorobenzyl)-3,4-dihydro-3-oxo-2H-1,4-benzoxazine] |

More lines, now with the values behind:

| Compound | MIC (gram positive bacteria) | IC50 (Kinase A and SpoOF) | MIC (gram negative bacteria) |
| --- | --- | --- | --- |
| N=C(N)NCCc1ccc(OCCC2Oc3ccc([N+](=O)[O-])cc3N(Cc3ccccc3Cl)C2=O)cc1 (centres unmarked) [Compound 89, 3,4-Dihydro-2-{2-[4-(2-guanidinoethyl)-phenoxy]ethyl}-6-nitro-4-(2-chlorobenzyl)-3-oxo-2H-1,4-benzoxazine] | 1 to 4 µg/mL (≈ 1.91 to 7.63 µM) | 17 µM | – |
| NCc1ccc(OCCC2Oc3ccccc3N(Cc3cc(Cl)cc(Cl)c3)C2=O)cc1 (centres unmarked) [Compound 39, 2-{2-[4-(2-Aminomethyl)phenoxy]ethyl}-4-(3,5-dichlorobenzyl)-3,4-dihydro-3-oxo-2H-1,4-benzoxazine] | 4 to 16 µg/mL (≈ 8.75 to 35 µM) | 46 µM | – |
| N=C(N)NCCc1ccc(OCCC2CN(Cc3cccc(Cl)c3)c3ccccc3O2)cc1 (centres unmarked) [Compound 23, 4-(3-Chlorobenzyl)-2-[2-[4-(2-guanidinoethyl)phenoxy]ethyl]-3,4-dihydro-2H-1,4-benzoxazine] | 1 to 2 µg/mL (≈ 2.15 to 4.3 µM) | 17 µM | – |
| N=C(N)NCCc1ccc(OCCC2CN(Cc3ccc(Cl)cc3)c3ccccc3O2)cc1 (centres unmarked) [Compound 22, 4-(4-Chlorobenzyl)-2-[2-[4-(2-guanidinoethyl)phenoxy]ethyl]-3,4-dihydro-2H-1,4-benzoxazine] | 2 to 4 µg/mL (≈ 4.3 to 8.6 µM) | 41 µM | – |
| N=C(N)NCCc1ccc(OCCC2Oc3ccccc3N(Cc3ccc(Cl)cc3)C2=O)cc1 (centres unmarked) [Compound 26, 4-(4-Chlorobenzyl)-3,4-dihydro-2-[2-[4-(2-guanidinoethyl)phenoxy]ethyl]-3-oxo-2H-1,4-benzoxazine] | 2 to 4 µg/mL (≈ 4.18 to 8.35 µM) | 68 µM | – |
| N=C(N)NCCc1ccc(OCCC2Oc3ccccc3N(Cc3cc(Cl)cc(Cl)c3)C2=O)cc1 (centres unmarked) [Compound 40, 4-(3,5-Dichlorobenzyl)-3,4-dihydro-2-{2-[4-(2-guanidinoethyl)phenoxy]ethyl}-3-oxo-2H-1,4-benzoxazine] | 2 µg/mL (≈ 3.9 µM) | 24 µM | – |
| NCc1ccc(OCCC2Oc3ccccc3N(Cc3ccc(Cl)cc3)C2=O)cc1 (centres unmarked) [Compound 4, 2-[2-[4-(Aminomethyl)phenoxy]ethyl]-4-(4-chlorobenzyl)-3,4-dihydro-3-oxo-2H-1,4-benzoxazine] | 8 to 16 µg/mL (≈ 18.9 to 37.8 µM) | 47 µM | – |
| Cc1ccc2c(c1)OC(CCOc1ccc(CCNC(=N)N)cc1)C(=O)N2Cc1cccc(Cl)c1 (centres unmarked) [Compound 58, 4-(3-Chlorobenzyl)-2-{2-[4-(2-guanidinoethyl)phenoxy]ethyl}-3,4-dihydro-7-methyl-3-oxo-2H-1,4-benzoxazine] | 2 µg/mL (≈ 4.06 µM) | 17 µM | – |
| NCCc1ccc(OCCC2Oc3ccccc3N(Cc3ccc(Cl)cc3)C2=O)cc1 (centres unmarked) [Compound 6, 2-[2-[4-(2-Aminoethyl)phenoxy]ethyl]-4-(4-chlorobenzyl)-3,4-dihydro-3-oxo-2H-1,4-benzoxazine] | 1 to 2 µg/mL (≈ 2.29 to 4.58 µM) | 61 µM | 2 to 64 µg/mL (≈ 4.58 to 146 µM) |
| N=C(N)NCc1ccc(OCCC2Oc3ccccc3N(Cc3ccccc3Cl)C2=O)cc1 (centres unmarked) [Compound 19, 4-(2-Chlorobenzyl)-2-[2-[4-(guanidinomethyl)phenoxy]ethyl]-3,4-dihydro-3-oxo-2H-1,4-benzoxazine] | 1 to 4 µg/mL (≈ 2.15 to 8.6 µM) | 16 µM | – |
| N=C(N)NCc1ccc(OCCC2CN(Cc3ccccc3Cl)c3ccccc3O2)cc1 (centres unmarked) [Compound 145, 2-[2-[4-(2-guanidinomethyl)phenoxy]ethyl]-4-(2-chlorobenzyl)-3,4-dihydro-2H-1,4-benzoxazine] | 1 to 2 µg/mL (≈ 2.22 to 4.43 µM) | 23 µM | – |
| CCCCCN1C(=O)C(CCOc2ccc(CCNC(=N)N)cc2)Oc2ccccc21 (centres unmarked) [Compound 61, 3,4-Dihydro-2-{2-[4-(2-guanidinoethyl)phenoxy]ethyl}-3-oxo-4-pentyl-2H-1,4-benzoxazine] | 4 to 8 µg/mL (≈ 9.42 to 18.8 µM) | 41 µM | 4 to 64 µg/mL (≈ 9.42 to 151 µM) |
| N=C(N)NCCc1ccc(OCCC2Oc3ccc(N)cc3N(Cc3cccc(Cl)c3)C2=O)cc1 (centres unmarked) [Compound 92, 6-Amino-4-(3-chlorobenzyl)-3,4-dihydro-2-{2-[4-(2-guanidinoethyl)phenoxy]ethyl}-3-oxo-2H-1,4-benzoxazine] | 2 to 16 µg/mL (≈ 4.05 to 32.4 µM) | 34 µM | – |
| CN1C(=O)C(CCOc2ccc(CCNC(=N)N)cc2)Oc2ccccc21 (centres unmarked) [Compound 60, 3,4-Dihydro-2-{2-[4-(2-guanidinoethyl)phenoxy]ethyl}-4-methyl-3-oxo-2H-1,4-benzoxazine] | 16 to 34 µg/mL (≈ 43.4 to 92.3 µM) | 55 µM | – |
| N=C(N)NCCc1ccc(OCCC2Oc3ccc(Cl)cc3N(Cc3cccc(Cl)c3)C2=O)cc1 (centres unmarked) [Compound 50, 6-Chloro-4-(3-chlorobenzyl)-2-{2-[4-(2-guanidinoethyl)phenoxy]ethyl}-3,4-dihydro-3-oxo-2H-1,4-benzoxazine] | 2 µg/mL (≈ 3.9 µM) | 9 µM | – |
